{"source": "patent US6093692A", "about": "“Method and compositions for lipidization of hydrophilic molecules” (The University of Southern California, priority 1997, dated 2000)", "key": {"[1]": {"test": "Plasma calcitonin and calcium after subcutaneous administration", "format": "in vivo, mice", "settings": "s.c., 125 μg/kg in 10% Liposyn II", "method": "Both CT and CT-P were iodinated with ^125 I using chloramine T method. ^125 I-CT or ^125 I-CT-P was injected s.c. into mice at a dose of 125 μg/kg in 10% Liposyn® II (Abbott). Groups of three mice were sacrificed at different time points. The levels of calcium in the blood samples were determined by using a commercial calcium diagnostic kit (Sigma Chemical Co.). The plasma from each mouse was isolated and treated with 5% trichloroacetic acid (TCA) in an ice bath. The radioactivity in the hs TCA precipitates were considered as the intact CT in the plasma."}, "[2]": {"test": "Gastro-intestinal absorption and calcium-lowering effect after oral administration", "format": "in vivo, CF mice", "settings": "100 μg/kg in PBS, one hour, CT-RIA, N = 3, S.D.", "method": "CT and CT-P were orally administered to CF mice using a gavaging needle at a dose of 100 μg/kg in PBS. The mice, three of each group, were sacrificed 1 hour after the treatment, and the plasma was isolated from their blood. The levels of CT and calcium were measured by using commercial CT-RIA (Phoenix) and calcium diagnostic (Sigma Chemical Co.) kits, respectively. […] Furthermore, the level of calcium in plasma at 1 hour was lower in CT-P treated mice than that in CT treated mice, which was consistent with the finding in CT levels. Because the crossreactivity of CT-P to the anti-CT antibody is only about 10%, the actual concentration of total CT in the plasma of CT-P treated mice could be even higher than the value presented in Table 5."}, "[3]": {"test_system": "Brattleboro rats with hereditary hypothalamic diabetes insipidus", "test": "Anti-diuretic effects in rats with hereditary hypothalamic diabetes insipidus, subcutaneous", "format": "in vivo", "settings": "s.c., 3.3 μg/kg in 10% Liposyn II, FIG. 7", "method": "Brattleboro rats, which carry the hereditary disease of hypothalamic diabetes insipidus, were used to compare the effects of DP and DP-P for alleviating the disease symptoms, i.e., polyuria and polydipsia. A group of three Brattleboro rats were kept separately in three metabolic cages. Their body weight, water intake and urine output were measured every day. DP and DP-P were dissolved in 10% Liposyn® II (Abbott Laboratories, Abbott Park, Ill., USA) and injected subcutaneously (s.c.) to each rat at doses ranging from 0.02 to 20 μg/kg. […] On the other hand, DP-P at the identical dose could maintain the rats symptom-free for more than 3 days, as indicated by the reduction of both water intake and urine output without significant change of the body weight.\nIn order to evaluate the dose-dependent responses to DP and DP-P in Battleboro rats, the effectiveness of anti-diuretic activity was defined as the length of time that a more than 50% reduction of the urine volume can be maintained in the treated animals."}, "[4]": {"test_system": "mouse fibroblasts L929 cells", "test": "Cellular uptake of HRPssPal", "format": "cell-based", "settings": "30 μg/ml, serum-free medium, 1 hour, 37° C.", "method": "Confluent monolayers of mouse fibroblasts L929 cells in 6-well culture cluster plates were incubated in serum-free medium with 30 μg/ml of HRP, either as the native form or as the palmitic acid conjugate (HRPssPal). After 1 hour at 37° C., monolayers were washed three times with PBS and then dissolved in 1 ml of 0.05% of Triton-X100. Cell-associated HRP was determined by measuring the enzymatic activity in each cell extract and the results converted to ng HRP per cell monolayer. […] Therefore, a 30-fold increase in cell uptake was achieved by modification of HRP with Pal-PDC."}, "[5]": {"test_system": "Caco-2 monolayers", "format": "in vitro ADME, Human", "method": "Suspended Caco-2 cells in 1.5 ml of medium were seeded into the apical chamber of the transwells at a density of 0.5 million cells per insert. 2.5 ml of the medium was then added to the basal chambers of each transwell. The cells were allowed to attach for 2 days without disturbance and were then fed every other day until the experiments were performed. The cells were maintained for approximately 14-20 days prior to the experiments and were fed 24 hr before each experiment. The cell monolayers developed a transepithelial electrical resistance (TEER) of approximately 500-600 .OMEGA.) cm^2 within one week of the seeding and maintained this resistance for up to 21 days post-seeding.\nConfluent cell monolayers, 2 to 3 weeks old, and having a TEER value of approximately 500 .OMEGA. cm^2, were first incubated with Dulbecco's MEM containing 1% of FBS for 30 min at 37° C. […] At predetermined times, the entire basal chamber medium (2.5 ml) from each transwell was removed and counted for radioactivity using a gamma counter. […] After the 24 hr samples were taken, the cell monolayers were rinsed three times with ice-cold PBS, cut out of the inserts, and counted for accumulated radioactivity using a gamma counter. […]\nBBI was modified with 2 or 4 palmitic acids, and the transport was determined in transwells. […]"}}, "data": [{"molecule": "CC(C)C[C@H](NC(=O)[C@H](CCCCN)NC(=O)CNC(=O)[C@H](CC(C)C)NC(=O)[C@@H](NC(=O)[C@@H]1CSSC[C@H](N)C(=O)N[C@@H](CO)C(=O)N[C@@H](CC(N)=O)C(=O)N[C@@H](CC(C)C)C(=O)N[C@@H](CO)C(=O)N[C@@H]([C@@H](C)O)C(=O)N1)C(C)C)C(=O)N[C@@H](CO)C(=O)N[C@@H](CCC(N)=O)C(=O)N[C@@H](CCC(=O)O)C(=O)N[C@@H](CC(C)C)C(=O)N[C@@H](Cc1c[nH]cn1)C(=O)N[C@@H](CCCCN)C(=O)N[C@@H](CC(C)C)C(=O)N[C@@H](CCC(N)=O)C(=O)N[C@H](C(=O)N[C@@H](Cc1ccc(O)cc1)C(=O)N1CCC[C@H]1C(=O)N[C@@H](CCCNC(=N)N)C(=O)N[C@H](C(=O)N[C@@H](CC(N)=O)C(=O)N[C@H](C(=O)NCC(=O)N[C@@H](CO)C(=O)NCC(=O)N[C@H](C(=O)N1CCC[C@H]1C(N)=O)[C@@H](C)O)[C@@H](C)O)[C@@H](C)O)[C@@H](C)O", "note": "[CT, Salmon calcitonin]", "values": [{"measurement": "Plasma clearance", "setting": "[1]", "value": "rapid plasma clearance"}, {"measurement": "Plasma calcitonin concentration, CT", "setting": "[2]", "value": "9.2 ± 0.7", "unit": "pg/0.1 ml plasma"}]}, {"molecule": "NC(=O)CC[C@@H]1NC(=O)[C@H](Cc2ccccc2)NC(=O)[C@H](Cc2ccc(O)cc2)NC(=O)CCSSC[C@@H](C(=O)N2CCC[C@H]2C(=O)N[C@H](CCCN=C(N)N)C(=O)NCC(N)=O)NC(=O)[C@H](CC(N)=O)NC1=O", "note": "[DP, Desmopressin]", "values": [{"measurement": "Time rats maintained symptom-free", "setting": "[3]", "value": "less than one"}]}, {"molecule": "horseradish peroxidase [HRP]", "values": [{"measurement": "Cellular uptake", "setting": "[4]", "value": 7, "unit": "ng HRP per cell monolayer"}]}, {"molecule": "BBIssPal(4): BBI modified with 4 palmitic acids (conjugate, UniProt P01055 40-110, looked up, 4 palmityl disulfide groups, BBI modified with 4 palmitic acids) Bowman-Birk type proteinase …: DDESSKPCCDQCACTKSNPPQCRCSDMRLNSCHSACKSCICALSYPAQCFCVDITDFCYEPCKPSEDDKEN", "values": [{"measurement": "Internalization of the conjugates into the cells (rank)", "setting": "[5]", "value": "highest uptake into the cells"}]}]}
